US20120328692A1, “POTENT D-PEPTIDE ANTAGONISTS OF MDM2 AND MDMX FOR ANTICANCER THERAPY” (UNIVERSITY OF MARYLAND, BALTIMORE, priority 2011, published 2012)
pIC50, pKd: −log10 of the molar value.

Assays:
normal cells = conditions: cited from earlier work
[1] = target: T1, ^synMDMX (^24-108MDMX, p53-binding domain of MDMX) (Homo sapiens, UniProt O15151); experiment: competition SPR binding to synMDMX
T1 construct: MDMX (^24-108MDMX or syn MDMX); made in house; host or cells: chemical synthesis (inferred from the prefix 'syn'; no expression host named)
T1 sequence (O15151 24-108): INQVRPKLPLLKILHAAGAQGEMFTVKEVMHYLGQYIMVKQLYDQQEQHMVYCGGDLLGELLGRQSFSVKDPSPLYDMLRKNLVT

[2] = test system: human glioma cell line U87 (wild type p53); experiment: MTS cell viability assay, U87 cells; assay type: cell-based; conditions: three-day treatment, read-out: IC50 of growth inhibition
Excerpt: The inhibition curves are averages of 3 independent measurements.

## MI-219
Normal cells
  activation of the p53 pathway (accumulation of p53, increased MDM2 and p21): transient activation of the p53 pathway
  expression of PUMA and apoptosis: fails to induce the expression of PUMA and apoptosis

## CC(C)C[C@@H](NC(=O)[C@H]1CCCN1C(=O)[C@@H](Cc1c[nH]c2ccccc12)NC(=O)[C@@H](Cc1c[nH]c2ccccc12)NC(=O)[C@H](N)CC(=O)O)C(=O)N[C@H](C)C(=O)N[C@H](Cc1ccccc1)C(=O)N[C@H](CCC(=O)O)C(=O)N[C@H](C)C(=O)N[C@H](CC(C)C)C(=O)N[C@H](CC(C)C)C(=O)N[C@H](CCCNC(=N)N)C(=O)O [^DPMI-γ]
[1]
  pKd: 5.31

## COc1ccc(C2=N[C@@H](c3ccc(Cl)cc3)[C@@H](c3ccc(Cl)cc3)N2C(=O)N2CCNC(=O)C2)c(OC(C)C)c1 [Nutlin-3]
[2]
  pIC50: 5.42
